Measurements: US7368578B2, “Five-membered heterocyclic compounds” (Takeda Pharmaceutical Company Limited, priority 2002, dated 2008)

Compound `COCc1cn(-c2ccccc2)nc1OCc1ccc(OCc2nc(-c3ccco3)oc2C)c(OC)c1` [Example 101, 2-(2-furyl)-4-{[2-methoxy-4-({[4-(methoxymethyl)-1-phenyl-1H-pyrazol-3-yl]oxy}methyl)phenoxy]methyl}-5-methyl-1,3-oxazole] has a melting point of 121 to 122 °C. `CNCc1cn(-c2ccccc2)nc1OCc1ccc(OCc2nc(-c3ccco3)oc2C)c(OC)c1` [Example 102, N-({3-[(4-{[2-(2-furyl)-5-methyl-1,3-oxazol-4-yl]methoxy}-3-methoxybenzyl)oxy]-1-phenyl-1H-pyrazol-4-yl}methyl)-N-methylamine] gave a melting point of 103 to 104 °C. In the case of `COc1cc(COc2nn(-c3ccccc3)cc2CCO)ccc1OCc1nc(-c2ccco2)oc1C` [Example 104, 2-{3-[(4-{[2-(2-furyl)-5-methyl-1,3-oxazol-4-yl]methoxy}-3-methoxybenzyl)oxy]-1-phenyl-1H-pyrazol-4-yl}ethanol], the melting point is reported as 123 to 124 °C. For `COc1cc(COc2nn(-c3ccccc3)cc2/C=C2\SC(=O)N(C)C2=O)ccc1OCc1nc(-c2ccco2)oc1C` [Example 105, (5Z)-5-({3-[(4-{[2-(2-furyl)-5-methyl-1,3-oxazol-4-yl]methoxy}-3-methoxybenzyl)oxy]-1-phenyl-1H-pyrazol-4-yl}methylene)-3-methyl-1,3-thiazolidine-2,4-dione], the melting point was 215 to 216 °C. `COc1cc(COc2nn(-c3ccccc3)cc2CC2SC(=O)N(C)C2=O)ccc1OCc1nc(-c2ccco2)oc1C` (centres unmarked) [Example 106, 5-({3-[(4-{[2-(2-furyl)-5-methyl-1,3-oxazol-4-yl]methoxy}-3-methoxybenzyl)oxy]-1-phenyl-1H-pyrazol-4-yl}methyl)-3-methyl-1,3-thiazolidine-2,4-dione] showed a melting point of 111 to 112 °C. In the case of `COc1cc(COc2nn(-c3ccccc3)cc2-c2cnco2)ccc1OCc1nc(-c2ccco2)oc1C` [Example 107, 2-(2-furyl)-4-{[2-methoxy-4-({[4-(1,3-oxazol-5-yl)-1-phenyl-1H-pyrazol-3-yl]oxy}methyl)phenoxy]methyl}-5-methyl-1,3-oxazole], the melting point is reported as 153 to 154 °C. `COc1cc(COc2nn(-c3ccccc3)cc2/C=C/CO)ccc1OCc1nc(-c2ccco2)oc1C` [Example 108, (2E)-3-{3-[(4-([2-(2-furyl)-5-methyl-1,3-oxazol-4-yl]methoxy}-3-methoxybenzyl)oxy]-1-phenyl-1H-pyrazol-4-yl}-2-propen-1-ol] showed a melting point of 120 to 121 °C. `COc1cc(COc2nn(-c3ccccc3)cc2/C=C/C=O)ccc1OCc1nc(-c2ccco2)oc1C` [Example 109, (2E)-3-{3-[(4-{[2-(2-furyl)-5-methyl-1,3-oxazol-4-yl]methoxy}-3-methoxybenzyl)oxy]-1-phenyl-1H-pyrazol-4-yl}-2-propenaldehyde] gave a melting point of 134 to 135 °C. `C=CC(c1cn(-c2ccccc2)nc1OCc1ccc(OCc2nc(-c3ccco3)oc2C)c(OC)c1)n1cncn1` (centres unmarked) [Example 110, 1-(1-{3-[(4-{[2-(2-furyl)-5-methyl-1,3-oxazol-4-yl]methoxy}-3-methoxybenzyl)oxy]-1-phenyl-1H-pyrazol-4-yl}-2-propenyl)-1H-1,2,4-triazole] showed a melting point of 115 to 116 °C. Compound `COc1cc(COc2nn(-c3ccccc3)cc2/C=C/c2cscn2)ccc1OCc1nc(-c2ccco2)oc1C` [Example 111 (E form), 2-(2-furyl)-4-({2-methoxy-4-[({1-phenyl-4-[(E)-2-(1,3-thiazol-4-yl)ethenyl]-1H-pyrazol-3-yl}oxy)methyl]phenoxy)methyl)-5-methyl-1,3-oxazole] has a melting point of 136 to 137 °C. For `COc1cc(COc2nn(-c3ccccc3)cc2/C=C\c2cscn2)ccc1OCc1nc(-c2ccco2)oc1C` [Example 111 (Z form), 2-(2-furyl)-4-({2-methoxy-4-[({1-phenyl-4-[(Z)-2-(1,3-thiazol-4-yl)ethenyl]-1H-pyrazol-3-yl}oxy)methyl]phenoxy}methyl)-5-methyl-1,3-oxazole], the melting point was 137 to 138 °C. With `COc1cc(COc2nn(-c3ccccc3)cc2/C=C/c2ccccn2)ccc1OCc1nc(-c2ccco2)oc1C` [Example 113, 2-((E)-2-{3-[(4-{[2-(2-furyl)-5-methyl-1,3-oxazol-4-yl]methoxy}-3-methoxybenzyl)oxy]-1-phenyl-1H-pyrazol-4-yl}ethenyl)pyridine] the melting point was 135 to 136 °C. In the case of `COc1cc(COc2nn(-c3ccccc3)cc2/C=C/c2cnco2)ccc1OCc1nc(-c2ccco2)oc1C` [Example 114, 2-(2-furyl)-4-({2-methoxy-4-[({4-[(E)-2-(1,3-oxazol-5-yl)ethenyl]-1-phenyl-1H-pyrazol-3-yl}oxy)methyl]phenoxy}methyl)-5-methyl-1,3-oxazole], the melting point is reported as 137 to 138 °C. With `CCCc1nnc(/C=C/c2cn(-c3ccccc3)nc2OCc2ccc(OCc3nc(-c4ccco4)oc3C)c(OC)c2)o1` [Example 115, 2-((E)-2-{3-[(4-{[2-(2-furyl)-5-methyl-1,3-oxazol-4-yl]methoxy}-3-methoxybenzyl)oxy]-1-phenyl-1H-pyrazol-4-yl}ethenyl)-5-propyl-1,3,4-oxadiazole] the melting point was 172 to 173 °C. For `COc1cc(COc2nn(-c3ccccc3)cc2/C=C/c2nnco2)ccc1OCc1nc(-c2ccco2)oc1C` [Example 118, 2-((E)-2-{3-[(4-{[2-(2-furyl)-5-methyl-1,3-oxazol-4-yl]methoxy}-3-methoxybenzyl)oxy]-1-phenyl-1H-pyrazol-4-yl}ethenyl)-1,3,4-oxadiazole], the melting point was 162 to 163 °C. `COc1cc(COc2nn(-c3ccccc3)cc2CCc2cscn2)ccc1OCc1nc(-c2ccco2)oc1C` [Example 119, 2-(2-furyl)-4-({2-methoxy-4-[({1-phenyl-4-[2-(1,3-thiazol-4-yl)ethyl]-1H-pyrazol-3-yl}oxy)methyl]phenoxy}methyl)-5-methyl-1,3-oxazole] showed a melting point of 127 to 128 °C. For `CCCc1nnc(Cc2cn(-c3ccccc3)nc2OCc2ccc(OCc3nc(-c4ccco4)oc3C)c(OC)c2)o1` [Example 120, 2-({3-[(4-{[2-(2-furyl)-5-methyl-1,3-oxazol-4-yl]methoxy}-3-methoxybenzyl)oxy]-1-phenyl-1H-pyrazol-4-yl}methyl)-5-propyl-1,3,4-oxadiazole], the melting point was 102 to 103 °C. Work on `COc1cc(COc2nn(-c3ccccc3)cc2CC2=NCCO2)ccc1OCc1nc(-c2ccco2)oc1C` [Example 121, 4-{[4-({[4-(4,5-dihydro-1,3-oxazol-2-ylmethyl)-1-phenyl-1H-pyrazol-3-yl]oxy}methyl)-2-methoxyphenoxy]methyl}-2-(2-furyl)-5-methyl-1,3-oxazole] yielded a melting point of 95 to 96 °C. `COc1cc(COc2nn(-c3ccccc3)cc2Cn2cncn2)ccc1OCc1nc(-c2ccco2)oc1C` [Example 122, 1-({3-[(4-{[2-(2-furyl)-5-methyl-1,3-oxazol-4-yl]methoxy}-3-methoxybenzyl)oxy]-1-phenyl-1H-pyrazol-4-yl}methyl)-1H-1,2,4-triazole] showed a melting point of 149 to 150 °C. In the case of `CCCc1nnc(CCc2cc(OCc3ccc(OCc4nc(-c5ccccc5)oc4C)c(OC)c3)nn2-c2ccccc2)o1` [Example 123, 2-{2-[3-({3-methoxy-4-[(5-methyl-2-phenyl-1,3-oxazol-4-yl)methoxy]benzyl}oxy)-1-phenyl-1H-pyrazol-5-yl]ethyl}-5-propyl-1,3,4-oxadiazole], the melting point is reported as 85 to 86 °C.
